Activity calls are given as the source filed them. The rule behind the calls is not given here.

Test [1] has as its target T1, Peroxisome proliferator-activated receptor gamma (Homo sapiens) (UniProt P37231).
T1 sequence (whole entry): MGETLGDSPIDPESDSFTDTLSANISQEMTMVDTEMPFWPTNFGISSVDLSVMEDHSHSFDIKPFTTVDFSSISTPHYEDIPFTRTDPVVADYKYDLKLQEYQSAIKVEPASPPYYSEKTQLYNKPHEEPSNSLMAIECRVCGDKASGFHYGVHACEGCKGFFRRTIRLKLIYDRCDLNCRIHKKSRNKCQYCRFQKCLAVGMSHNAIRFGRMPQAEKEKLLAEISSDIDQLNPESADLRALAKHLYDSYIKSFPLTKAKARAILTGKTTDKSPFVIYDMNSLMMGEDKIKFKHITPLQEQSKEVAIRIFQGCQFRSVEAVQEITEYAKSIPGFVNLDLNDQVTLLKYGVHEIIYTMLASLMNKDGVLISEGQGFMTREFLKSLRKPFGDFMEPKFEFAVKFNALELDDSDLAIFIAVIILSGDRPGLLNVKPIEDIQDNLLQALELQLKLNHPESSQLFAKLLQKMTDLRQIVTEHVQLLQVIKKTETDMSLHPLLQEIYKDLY
In words: Agonist activity at PPARgamma expressed in mouse NIH3T3 cells assessed as maximum activation at 100 uM after 16 hrs by reporter gene assay. The class given is functional, cell-based. Background: In a reporter assay the amount or activity of a reporter protein is the signal.

A further test concerns Escherichia coli. In words: Antimicrobial activity against Escherichia coli. The test is classed as functional, organism-based.
Another test concerns Staphylococcus aureus. Description: Antimicrobial activity against Staphylococcus aureus. The class given is functional, organism-based.
Test [2] has as its target T1, Peroxisome proliferator-activated receptor gamma (Homo sapiens). Description: Agonist activity at PPARgamma expressed in mouse NIH3T3 cells assessed as maximum activation at 10 uM after 16 hrs by reporter gene assay. The class given is functional, cell-based.
The test system of a further test is Bacillus subtilis. In words: Antimicrobial activity against Bacillus subtilis. The class given is functional, organism-based.

For `COc1c(Cl)c(Cl)c(O)c(Cl)c1Cl`, in test [1], the fold change (FC) came to 8.4.

On to `COc1c(Cl)c(Cl)c(Oc2c(O)c(Oc3c(Cl)c(Cl)c(OC)c(Cl)c3Cl)c(Cl)c(OC)c2Cl)c(Cl)c1Cl`, for which the result in the test with Escherichia coli, in the test on Staphylococcus aureus and in the test on Bacillus subtilis was inactive. In addition, the fold change (FC) in test [2] amounted to 2.

For the compound `COc1c(Cl)c(Cl)c(Oc2c(Cl)c(OC)c(Cl)c(Cl)c2Oc2c(O)c(Cl)c(Cl)c(OC)c2Cl)c(Cl)c1Cl`, the result in the test on Escherichia coli, in the test on Staphylococcus aureus and in the test with Bacillus subtilis was inactive. Also, the fold change (FC) in test [2] was found to be 8.5.

For the compound `COc1c(Cl)c(Cl)c(Oc2c(O)c(Cl)c(OC)c(Cl)c2Oc2c(Cl)c(Cl)c(OC)c(Cl)c2Cl)c(Cl)c1Cl`, the outcome in the test on Escherichia coli, in the test on Staphylococcus aureus and in the test with Bacillus subtilis was inactive. Moreover, the fold change (FC) in test [2] was 2.
